Laboratory results published in US20210403606A1, “METHOD FOR SEPARATING AND PURIFYING POLYSACCHARIDES FROM GANODERMA SPORES” (ZHONGKE HEALTH INDUSTRY GROUP JIANGSU PHARMACEUTICAL CO., …, priority 2018, published 2021).

Key:
transplanted tumor S180 = test: Inhibitory effects on the transplanted tumor S180 in mice by tail vein injection; type: in vivo, ICR mice
Experimental: (§1) 1.2. Animals: ICR mice, 18-22 g, half males and half females, provided by the Animal Laboratory of China Pharmaceutical University. The animals were fed with pellet feed in an air-conditioned room at a temperature of 18-24° C., and a relative humidity of 70%.
3.2. Inhibitory effects of No. 1, No. 2, and No. 3 on the transplanted tumor S180 in mice by tail vein injection
3.2.1. Route of administration: No. 1, No. 2, and No. 3 are administrated by tail vein injection (iv).
(§2) 3.2.2. Schedule of administration: the mice are inoculated with solid-type 5180 tumors according to protocols of transplanted tumor research, and 24 hours after inoculation, the medicines are intravenously administered once every other day for a total of 4 doses. On the day after stopping administration, the mice are sacrificed and dissected.
3.2.3. Dose setting: There are 6 groups in total, namely:
3.2.4. Volume of administration: 0.4 ml/20 g
(§3) 3.2.5. Test method: 60 mice of the foregoing specification were inoculated with solid-type 5180 tumors according to protocols of the transplanted tumor research. The mice were weighed 24 hours after inoculation, and randomly divided into 6 groups, each with 10 mice, having half males and half females. The blank control group and the CTX group were respectively used as a negative control group and a positive control group. 24 hours after inoculation, the medicines were intravenously administered once every other day for a total of 4 doses. The mice were weighed on the day after stopping administration. The tumor-bearing mice were sacrificed, and the tumor masses were separated and weighed, and the obtained data was statistically processed (t-test).

transplanted tumor Heps = test: Inhibitory effects on the transplanted tumor Heps in mice by tail vein injection; type: in vivo, ICR mice
Experimental: as §1
3.1. Inhibitory effects of No. 1, No. 2, and No. 3 on the transplanted tumor Heps in mice by tail vein injection
3.1.1. Route of administration: No. 1, No. 2, and No. 3 are administrated by tail vein injection (iv).
as §2, with “3.1.2.” for “3.2.2.”, “Heps” for “5180”
3.1.3. Dose setting: There are 6 groups in total, namely:
3.1.4. Volume of administration: 0.4 ml/20 g
as §3, with “3.1.5.” for “3.2.5.”, “Heps” for “5180”

O=P1(N(CCCl)CCCl)NCCCO1 (centres unmarked) [CTX, Cyclophosphamide]
Tumor inhibition rate (transplanted tumor S180; S180, 30 mg/kg once every other day, 4 doses): 65.71% | Tumor weight (transplanted tumor S180; S180, 30 mg/kg once every other day, 4 doses, X ± SD, n = 10): 0.55 ± 0.18 g | Weight After administration (transplanted tumor S180; S180-bearing mice, 30 mg/kg once every other day, 4 doses, X ± SD, n = 10): 23.2 ± 2.74 | Weight Before administration (transplanted tumor S180; S180-bearing mice, 30 mg/kg, baseline body weight, X ± SD, n = 10): 20.1 ± 1.28 | Tumor inhibition rate (transplanted tumor Heps; Heps, 30 mg/kg once every other day, 4 doses): 74.20% | Tumor weight (transplanted tumor Heps; Heps, 30 mg/kg once every other day, 4 doses, X ± SD, n = 10): 0.42 ± 0.19 g | Weight After administration (transplanted tumor Heps; Heps-bearing mice, 30 mg/kg once every other day, 4 doses, X ± SD, n = 10): 23.2 ± 2.74 | Weight Before administration (transplanted tumor Heps; Heps-bearing mice, 30 mg/kg, baseline body weight, X ± SD, n = 10): 20.0 ± 1.36
